According to patent US6552001B1, “Method breeding and feeds” (Takara Shuzo Co., Ltd., priority 1998, dated 2003):

Tests used:
Type in all cases: in vivo
white-mouth disease = assay: feed for tiger globefishes with white-mouth disease (Example 4); conditions: fishes without infection similarly treated
Description: A feed containing the heat treatment product of alginic acid to be given a day to 2000 tiger globefishes (average body weight: 450 g) suffered from white-mouth disease during culturing in sea was prepared upon use as follows. 1.11 kg of the heat treatment product of alginic acid as described in Referential Example 1-(1) was dissolved in water to a volume of 1.5 l. 10 kg of dry pellet feed (Otohime for globefish: Nisshin Flour Milling) was soaked with the solution. The entire feed was given to the fishes once a day such that 20 mg/kg body weight/day of cyclopentenone was given (group administered with the feed containing the heat treatment product of alginic acid).
As a control, 10 kg of the dry pellet feed (otohime for globefish: Nisshin Flour Milling) was given to 2000 tiger globefishes with white-mouth disease (average body weight: 450 g) once a day (control group)

gliding bacteria disease = assay: young bastard halibuts with gliding bacteria disease, soaking or feed (Example 3); conditions: fishes without infection similarly treated
Description: Young bastard halibuts with gliding bacteria disease (body weight: about 4 g) cultured on land were divided into four groups. Effect of the heat treatment product of alginic acid as described in Referential Example 1-(1) on gliding bacteria disease was examined.
Control group: 2400 young bastard halibuts were fed with commercially available dry pellets (Otohime No. 4: Nisshin Flour Milling) once a day. They were bred in a 25000-l seawater tank.
Soaked group: A water tank for soaking was prepared by adding 880 g of the heat treatment product of alginic acid to 400 l of seawater and starting oxygen supply. 2375 young bastard halibuts were distributed in baskets such that several hundreds of the fishes were contained in a basket. They were soaked in the water tank for soaking for 30 minutes. After soaking, they were bred in a 25000-l seawater tank being fed with commercially available dry pellets once a day.
Group administered with the heat treatment product of alginic acid (1): 2380 young bastard halibuts were bred in a 25000-l seawater tank being fed once a day with a feed prepared by adding 500 g of the heat treatment product of alginic acid to 78 kg of a moist feed as shown in Table 3 below. […]

lymphocystis disease [1] = assay: feed for bastard halibuts with lymphocystis disease cultured in sea (Example 2); conditions: fishes without infection similarly treated
Description: A feed for young bastard halibuts (average body weight: 350 g) suffered from lymphocystis disease during culturing in sea was prepared by adding 3 kg of the heat treatment product of alginic acid as described in Referential Example 1-(1) to 136 kg of the moist feed as shown in Table 2 below. The feed was given to the fishes once in two days such that the heat treatment product of alginic acid was given at 1.2 g/kg/feeding.

lymphocystis disease [2] = assay: soaking plus feed for bastard halibuts with lymphocystis disease cultured on land (Example 1); conditions: fishes without lymphocystis disease (preventive)
Description: Then, the water was replaced with seawater. A feed for diseased bastard halibuts was prepared by adding 7 kg of the heat treatment product of alginic acid to 134 kg of the moist feed as shown in Table 1 below. The feed was given to the soaked bastard halibuts twice a day such that the heat treatment product of alginic acid was given at 0.78 g/kg/day.

[3] = single oral administration to a mouse, death; conditions: single dosage of 100 mg/kg

In the case of `O=C1C=CC(O)C1O` (centres unmarked) [cyclopentenone, 4,5-dihydroxy-2-cyclopenten-1-one], the occurrence of infection (white-mouth disease) is reported as “no occurrence of infection”, the occurrence of infection (gliding bacteria disease) is reported as “no occurrence of infection” and the occurrence of infection (lymphocystis disease [1]) is reported as “no occurrence of infection”. The “occurrence of lymphocystis disease” value (lymphocystis disease [2]) was “no occurrence” and the death [3] was “No death”.
